Data on 5 molecules can be found in US7956047B2, “Use of chondroitin sulphate E (CS-E) for the treatment of diseases or conditions related to collagen fibril formation” (AnaMar AB, priority 2004, dated 2011).

“Also recorded” adds a separate entry of the source.

The test system of assay [1] is collagen monomers. The conditions noted are these: literature / manuscript of the applicant's laboratory; cited from earlier work.
In assay [2] the test system is collagen fibril formation (collagen monomers, collagen type I / collagen type II). In words: In vitro collagen fibrillogenesis assay (turbidity / light scattering). Format: biochemical, bovine. The conditions noted are these: for effect on collagen fibril formation (CFF): purified free CS chains added to collagen monomers (330 nM), pH 7.4, FIG. 2 panel A. The procedure: Bovine pepsin-extracted collagen type I was purchased from Vitrogen. Collagen II was pepsin extracted from bovine tracheal cartilage, as previously described (Vogel, K. G., Paulsson, M., and Heinegård, D. (1984) Biochem. J. 223, 587-597). The fibrillogenesis assay has been previously described (Hedborn, E. and Heinegård, D. (1989) J. Biol. Chem. 264, 6898-6905).
Briefly, a solution of collagen monomers (330 nM) was brought to neutral pH by addition of an appropriate volume of 0.012M NaOH, and buffered by 20 mM HEPES, 150 mM NaCl at pH 7.4. Perlecan fragment was added at concentrations equimolar to that of collagen or at one tenth the molar concentration of collagen. The sample was mixed vigorously and briefly, and transferred to a cuvette. The sample was incubated at 37° C. (collagen type I) or 35° C. (collagen type II) in water-jacketed cuvettes in the spectrophotometer, and the absorbance due to light scattering at 400 nm (collagen type I) or 313 nm (collagen type II) was monitored over a duration of 5-18 hrs. The increased absorbance/turbidity depends on increasing fibre formation.
Fibrillogenesis was performed as described above. CS-E from squid was purchased from Calbiochem. 0.13 μg/ml corresponding to the molar concentration of GAG chains in previous experiments using recombinant perlecan domain I variants with HS/CS (PG IB) (33 nM).

With “cartilage oligomeric matrix protein [COMP]”, in assay [1], the “effect on formation of collagen fibres from monomers in vitro” value (“effect on formation of collagen fibres” below) is given as “accelerates the formation of fibres from monomers”.

Consider chondroitin sulphate E [CS-E], for which, in assay [2] (FIG. 2 panel B), the “concentration at which the stimulatory effect on fibril formation reaches saturation” value amounted to 30 µg/mL and the “dose dependence of the stimulatory effect on collagen fibril formation” value is “dose-dependent”. In addition, the “effect on collagen fibril formation (CFF)” value in assay [2] is reported as “effective in collagen fibril formation; also recorded: positive result on collagen fibril formation; also recorded: dramatic effects on fibril formation”.

In the case of “chondroitin-6 sulphate [CS-6, reference compound]”, the “effect on collagen fibril formation (CFF)” value in assay [2] is “none of the other CS variants had any significant effect; also recorded: none of the other tested chondroitin sulphate variants (CS-D and CS-6) gives a positive result; also recorded: neither CS-6 nor CS-D had any effect”.

B1: decorin (protein, UniProt P07585 31-359, looked up)
Decorin: DEASGIGPEVPDDRDFEPSLGPVCPFRCQCHLRVVQCSDLGLDKVPKDLPPDTTLLDLQNNKITEIKDGDFKNLKNLHALILVNNKISKVSPGAFTPLVKLERLYLSKNQLKELPEKMPKTLQELRAHENEITKVRKVTFNGLNQMIVIELGTNPLKSSGIENGAFQGMKKLSYIRIADTNITSIPQGLPPSLTELHLDGNKISRVDAASLKGLNNLAKLGLSFNSISAVDNGSLANTPHLRELHLDNNKLTRVPGGLAEHKYIQVVYLHNNNISVVGSSDFCPPGHNTKKASYSGVSLFSNPVQYWEIQPSTFRCVYVRSAIQLGNYK
As to B1, in assay [1], the “effect on formation of collagen fibres” value is given as “slow down fibre formation in vitro”.

B2: fibromodulin (protein, UniProt Q06828 19-376, looked up)
Fibromodulin: QYEDDPHWWFHYLRSQQSTYYDPYDPYPYETYEPYPYGVDEGPAYTYGSPSPPDPRDCPQECDCPPNFPTAMYCDNRNLKYLPFVPSRMKYVYFQNNQITSIQEGVFDNATGLLWIALHGNQITSDKVGRKVFSKLRHLERLYLDHNNLTRMPGPLPRSLRELHLDHNQISRVPNNALEGLENLTALYLQHNEIQEVGSSMRGLRSLILLDLSYNHLRKVPDGLPSALEQLYMEHNNVYTVPDSYFRGAPKLLYVRLSHNSLTNNGLASNTFNSSSLLELDLSYNQLQKIPPVNTNLENLYLQGNRINEFSISSFCTVVDVVNFSKLQVLRLDGNEIKRSAMPADAPLCLRLASLIEI
On to B2, for which, in assay [1], the “effect on formation of collagen fibres” value was “slow down fibre formation in vitro”.
